Assays:
[1] = Near-saturated concentration of resveratrol in ethanol; format: physicochemical; details: 25° C.
Experimental: To deliver a 25 mg dose, 0.60 mL of tincture is required regardless of volume of beverage.

[2] = Free trans-resveratrol in beverages after adding trans-resveratrol powder, 10 micron filtered (HPLC/(+)ESI-MS/MS and HPLC/UV); format: physicochemical
Description: All beverages receiving the powder are thoroughly mixed. […] A few milliliters of each beverage are transferred to amber-colored sample vials. Samples are stored from each beverage in a refrigerator for analysis.

concentration of concentrated (near-saturated) tincture [1] | SMILES | appearance on adding powder to beverage ([2]; 25 mg powder in a serving volume, all beverages) | amount of bioavailable (free) resveratrol ([2]; 25 mg powder in alcoholic beverages (red wine, white wine, beer, spirits), 10 micron filtered) | measurable concentrations of free trans-resveratrol ([2]; 25 mg powder in non-alcoholic beverages (energy drink, sodas, orange juice), 10 micron filtered)
42000 µg/mL | Oc1ccc(/C=C/c2cc(O)cc(O)c2)cc1 [resveratrol, trans-resveratrol] | – | – | –
– | Oc1ccc(/C=C/c2cc(O)cc(O)c2)cc1 [trans-resveratrol powder, trans-resveratrol] | appears to suspend in solution forming a cloudy layer | below the minimum detection limits of the devices | none of the non-alcoholic beverages (energy drink, sodas, and orange juice) receiving the powder show any measurable concentrations of trans-resveratrol

Reference: US10071064B2, “Tincture for infusing flavonoids and methods of use” (Heart Healthy Spirits, LLC, priority 2014, dated 2018)
